Tests used:
[1] = tested on: Seeds of Lettuce R. (Super-Jericho); assay: Filter paper bioassay with lettuce seeds: germination and early plant development, Minimal Effective Concentration (MEC); type: in vivo; details: lettuce seeds on filter paper, 0 to 1 mmol/l, visually assessed after 6 days
Method in brief: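 Visual scoring on day 6 of radicle and shoot growth gives the MEC, the lowest dose deviating from control (no germination or malformation). Seeds (lettuce Super-Jericho, 10 per plate) sat on filter paper with 0–1 mmol/l aqueous compound, 48 h dark then 4 days 6/18 dark/light, in at least two repeats.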

[2] = tested on: Romaine lettuce (Lactuca sativa L.) plants; assay: Post-emergence herbicidal activity on potted Romaine lettuce plants (soil or foliar application); type: in vivo; details: lettuce at 2 to 3 leaves, two weeks after treatment
Method in brief: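 Potted lettuce at the 2-3 leaf stage received compound in 0.1% aqueous Silwet, up to 0.0001%, applied to soil (1 ml/pot) or sprayed on foliage (0.1 ml/pot), 20 plants per concentration. Visual scoring and aboveground wet weight after two weeks; growth inhibition from median weights versus control.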

[3] = tested on: Amaranth; assay: Herbicidal effect on potted weeds, plant development score; type: in vivo; details: soil application 1 mg/pot, scale 0 (dead plants) to 5 (healthy, as Control)
Experimental: (§1) Weed seeds were sawn in 0.3-liter pots, containing medium-heavy clay-loam soil from organic fields (55% clay, 23% silt, 20% sand, 2% organic matter, pH 7.1). The experiment was conducted in a completely randomized design. Each treatment was replicated 3 times (3 pots). Each compound was typically tested on crops (Corn, Wheat, Soy, Cotton, Oat, Chickpea) and weeds (Amaranth, Chenopodium, Lentils, Sinapis, Silybum).
(§2) The herbicides were applied at dose from 0 (control) to 5 mg/pot. The treatment was performed at the day of sawn (pre-emergence treatment). Then the pots were transferred to a mesh house 24 hours after herbicide application and were sprinkler irrigated to field capacity of the soil. Alternatively, the herbicides were applied on grown plants at stage 2-3 true leaves (post-emergence treatment).
(§3) The plants were grown in the mesh house during the entire experiment. Plant development at 6, 12, 19, 26 and 32 days after application (DAA) were evaluated on a scale of 0 to 5, in which 0 represents dead plants and 5 represents healthy plants similar or not different from Control. In the context of the invention, the herbicidal effect was expressed as a score calculated as an average of assessments of plants vigor, height, and leaf color.

[4] = tested on: Chenopodium; assay: as above; type: in vivo; details: soil application 1 mg/pot, scale 0 (dead plants) to 5 (healthy, as Control)
Experimental: as §1, §2, §3

[5] = tested on: Lentils; assay: as above; type: in vivo; details: soil application 1 mg/pot, scale 0 (dead plants) to 5 (healthy, as Control)
Experimental: as §1, §2, §3

[6] = tested on: Silybum; assay: as above; type: in vivo; details: soil application 1 mg/pot, scale 0 (dead plants) to 5 (healthy, as Control)
Experimental: as §1, §2, §3

[7] = tested on: Sinapis; assay: as above; type: in vivo; details: soil application 1 mg/pot, scale 0 (dead plants) to 5 (healthy, as Control)
Experimental: as §1, §2, §3

[8] = tested on: Romaine lettuce (Lactuca sativa L.) plants; assay: Comparison of NAA and DNAA: growth inhibition of potted Romaine lettuce plants; type: in vivo; details: two weeks after treatment
Experimental: The tests were performed on Romaine lettuce (Lactuca sativa L.) plants at the stage 2 to 3 leaves. The plants were grown in mini-pots packed with soil, dimensions 2×2×5 cm, one plant per mini-pot. Test compounds were dissolved in 0.1% aqueous solution water solution of Silwet adjuvant. The test material where applied in rate 0 (Control), 0.01, 0.05, and 0.5 mg/pot. The test compounds were applied on soil or foliar with airbrush (0.1 ml per pot). Each concentration was tested on 20 plants. Two weeks after the treatment the herbicidal effects of the respective test material were visually evaluated (aboveground part and roots. Then the aboveground part of the plants was neatly cut and weighed (wet weight) to assess the growth inhibition caused by the test compound. The growth inhibition (GI) was calculated as following: […]
Where Mt and Mc are median wet weight of treated and control plants, respectively.

[9] = tested on: Seeds of Lettuce R. (Super-Jericho); assay: Filter paper bioassay with lettuce seeds: germination, Fully Effective Concentration (FEC); type: in vivo; details: lowest concentration mostly preventing lettuce seed germination, assessed after 6 days
Method in brief: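 Ten lettuce seeds per Petri dish on filter paper with 2.0 ml aqueous test solution, 0 to 1 mmol/l, kept 48 hours dark then 4 days at 6/18 dark/light. Radicle and shoot assessed visually at day 6; FEC is the lowest concentration mostly preventing germination.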

[10] = foliar application, 0.05 mg/pot
[11] = foliar application, 0.50 mg/pot

Row | Compound | Score (activity score of Minimal Effective Concentration, MEC) [1] | Score (test material causing more than 85% of Growth Inhibition or irreversible plant damage) ([2]; foliar application) | Score (test material causing more than 85% of Growth Inhibition or irreversible plant damage) ([2]; soil application) | Average Herbicidal Effect, Amaranth ([3]; post-emergence) | Average Herbicidal Effect, Amaranth ([3]; pre-emergence) | Average Herbicidal Effect, Chenopodium ([4]; post-emergence) | Average Herbicidal Effect, Chenopodium ([4]; pre-emergence) | Average Herbicidal Effect, Lentils ([5]; post-emergence) | Average Herbicidal Effect, Lentils ([5]; pre-emergence) | Average Herbicidal Effect, Silybum ([6]; post-emergence) | Average Herbicidal Effect, Silybum ([6]; pre-emergence) | Average Herbicidal Effect, Sinapis ([7]; post-emergence) | Average Herbicidal Effect, Sinapis ([7]; pre-emergence) | Herbicidal effect, growth application (%) [8, 10] | Herbicidal effect, growth application (%) [8, 11] | Herbicidal effect, growth application (%) ([8]; soil application, 0.01 mg/pot) | Herbicidal effect, growth application (%) ([8]; soil application, 0.05 mg/pot) | Herbicidal effect, growth application (%) ([8]; soil application, 0.50 mg/pot) | melting point | FEC (Fully Effective Concentration) [9]
1 | 2-(6-bromopyridin-2-yl)-2,2-difluoroacetic acid [compound 6617] | Strong (0.01 mM) | moderate (0.5) | strong (0.01 to 0.05) | 2.0 | 4.5 | 0.5 | 4.5 | 1.0 | 2.0 | 4.5 | 5.0 | 2.0 | 3.5 | 88% | 100% | 52% | 92% | 91% | – | –
2 | CC(=O)NCCc1nc(Cl)sc1Cl [ID 5650, N-[2-(2,5-dichloro-1,3-thiazol-4-yl)ethyl]acetamide] | – | – | – | – | – | – | – | – | – | – | – | – | – | – | – | – | – | – | 87 °C | –
3 | O=C(O)Cc1cc(Cl)sc1Cl [compound 586, 2-(2,5-dichlorothiophen-3-yl) acetic acid] | strong | moderate (0.5) | moderate (0.5) | 3.3 | 2.0 | – | 1.5 | 3.2 | 0.5 | 3.7 | 1.0 | 0.0 | 5.0 | – | – | – | – | – | – | 0.050 mM
4 | O=C([O-])C(F)(F)c1csc(Cl)n1.[Na+] [compound 5666, sodium(2-chloro-1,3-thiazol-4-yl)(difluoro)acetate] | very strong | strong (0.01 to 0.05) | strong (0.01 to 0.05) | 1.2 | 1.0 | 1.5 | 0.0 | 0.0 | 0.0 | 0.0 | 0.5 | 0.0 | 1.0 | – | – | – | – | – | – | 0.010 mM
5 | O=C(O)C(F)(F)c1nc(Cl)sc1Cl [compound 5667, 2-(2,5-dichloro-1,3-thiazol-4-yl)-2,2-difluoroacetic acid] | very strong | strong (0.01 to 0.05) | strong (0.01 to 0.05) | 3.0 | 2.0 | 2.4 | 0.0 | 0.0 | 0.0 | 0.0 | 3.5 | 0.0 | 2.0 | 92% | 100% | 90% | 91% | 100% | – | –
6 | (2,5-dichlorothiophen-3-yl)(difluoro)acetic acid [compound 5640] | Strong (0.01 mM) | strong (0.01 to 0.05) | strong (0.01 to 0.05) | 2.0 | 4.0 | – | 5.0 | 2.1 | 0.0 | 2.0 | 2.5 | 0.0 | – | 100% | 100% | 5% | 100% | 100% | – | 0.100 mM

— patent US20240284907A1, “NOVEL DERIVATIVES OF NON-CODED AMINO ACIDS AND THEIR USE AS HERBICIDES” (FortePhest LTD., priority 2021, published 2024)
